SMILES strings stand for the structures.

T1 sequence (Q00975 whole entry): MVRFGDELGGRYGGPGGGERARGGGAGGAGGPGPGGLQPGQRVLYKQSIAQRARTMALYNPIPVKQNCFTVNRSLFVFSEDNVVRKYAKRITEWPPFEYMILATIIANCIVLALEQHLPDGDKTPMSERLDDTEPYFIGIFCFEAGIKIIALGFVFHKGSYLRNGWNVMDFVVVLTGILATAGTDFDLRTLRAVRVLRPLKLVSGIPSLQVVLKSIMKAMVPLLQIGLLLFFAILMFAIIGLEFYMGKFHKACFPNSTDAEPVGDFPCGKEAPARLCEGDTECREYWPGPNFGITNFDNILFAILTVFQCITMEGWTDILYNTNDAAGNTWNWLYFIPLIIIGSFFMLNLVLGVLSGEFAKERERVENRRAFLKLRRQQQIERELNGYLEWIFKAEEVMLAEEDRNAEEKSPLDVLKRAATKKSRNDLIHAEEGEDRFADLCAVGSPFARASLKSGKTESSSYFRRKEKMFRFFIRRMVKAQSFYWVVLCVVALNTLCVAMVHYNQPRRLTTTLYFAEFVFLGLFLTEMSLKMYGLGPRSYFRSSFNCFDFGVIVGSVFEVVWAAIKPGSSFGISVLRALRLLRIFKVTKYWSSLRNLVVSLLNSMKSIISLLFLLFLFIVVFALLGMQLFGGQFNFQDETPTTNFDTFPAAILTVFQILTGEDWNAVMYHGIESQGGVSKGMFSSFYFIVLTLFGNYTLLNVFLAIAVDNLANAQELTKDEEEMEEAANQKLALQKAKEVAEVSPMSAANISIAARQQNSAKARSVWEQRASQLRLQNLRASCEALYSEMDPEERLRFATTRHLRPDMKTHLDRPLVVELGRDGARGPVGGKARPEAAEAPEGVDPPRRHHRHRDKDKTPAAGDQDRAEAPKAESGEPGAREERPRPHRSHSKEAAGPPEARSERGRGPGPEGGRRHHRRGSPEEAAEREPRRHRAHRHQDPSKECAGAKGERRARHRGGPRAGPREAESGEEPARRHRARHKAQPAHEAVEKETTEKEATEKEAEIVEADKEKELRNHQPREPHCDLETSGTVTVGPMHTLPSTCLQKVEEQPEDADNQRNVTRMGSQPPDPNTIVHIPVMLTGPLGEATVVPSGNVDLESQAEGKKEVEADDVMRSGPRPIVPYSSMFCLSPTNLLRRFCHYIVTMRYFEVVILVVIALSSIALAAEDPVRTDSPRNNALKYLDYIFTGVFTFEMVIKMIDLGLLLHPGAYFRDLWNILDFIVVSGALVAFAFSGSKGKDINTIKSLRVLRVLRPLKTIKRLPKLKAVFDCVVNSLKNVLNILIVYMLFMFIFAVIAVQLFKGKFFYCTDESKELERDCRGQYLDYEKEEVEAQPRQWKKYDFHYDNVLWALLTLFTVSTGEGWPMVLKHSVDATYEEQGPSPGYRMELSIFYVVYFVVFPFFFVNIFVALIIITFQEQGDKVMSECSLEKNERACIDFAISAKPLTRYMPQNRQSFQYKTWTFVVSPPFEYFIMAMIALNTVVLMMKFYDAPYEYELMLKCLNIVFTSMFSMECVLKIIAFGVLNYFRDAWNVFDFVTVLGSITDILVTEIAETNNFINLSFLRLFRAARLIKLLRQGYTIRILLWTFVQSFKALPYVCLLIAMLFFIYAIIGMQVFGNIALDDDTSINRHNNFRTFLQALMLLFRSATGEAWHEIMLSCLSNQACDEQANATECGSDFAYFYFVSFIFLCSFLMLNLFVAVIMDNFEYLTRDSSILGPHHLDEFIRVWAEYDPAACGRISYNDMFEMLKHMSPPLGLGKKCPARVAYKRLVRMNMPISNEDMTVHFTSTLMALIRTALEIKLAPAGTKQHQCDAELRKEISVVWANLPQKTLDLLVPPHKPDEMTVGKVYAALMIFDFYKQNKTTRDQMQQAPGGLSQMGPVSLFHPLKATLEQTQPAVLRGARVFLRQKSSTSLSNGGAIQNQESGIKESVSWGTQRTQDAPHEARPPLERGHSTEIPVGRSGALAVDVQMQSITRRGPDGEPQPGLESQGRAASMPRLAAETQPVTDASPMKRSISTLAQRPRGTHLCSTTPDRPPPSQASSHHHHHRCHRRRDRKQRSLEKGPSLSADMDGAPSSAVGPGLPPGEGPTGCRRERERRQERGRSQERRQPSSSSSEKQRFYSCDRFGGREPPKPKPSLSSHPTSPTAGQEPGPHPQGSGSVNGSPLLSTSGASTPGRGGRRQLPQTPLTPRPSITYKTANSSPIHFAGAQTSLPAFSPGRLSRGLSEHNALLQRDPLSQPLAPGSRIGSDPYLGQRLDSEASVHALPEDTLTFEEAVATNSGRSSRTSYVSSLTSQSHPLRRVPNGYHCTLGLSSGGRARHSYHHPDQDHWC

This assay has as its target T1, Human Cav2.2 channels (Homo sapiens, UniProt Q00975).
T1 construct: expressed in transfected cells
The experiment in a line: Fluorescent assay for Cav2.2 channels using potassium depolarization to initiate channel opening. Format: cell-based. The settings on record: assay of Example 1 in the presence of 30 mM potassium (inactivated channel state). The text has this: Human Cav2.2 channels were stably expressed in HEK293 cells along with alpha2-delta and beta subunits of voltage-gated calcium channels. An inwardly rectifying potassium channel (Kir2.3) was also expressed in these cells to allow more precise control of the cell membrane potential by extracellular potassium concentration. At low bath potassium concentration, the membrane potential is relatively negative, and is depolarized as the bath potassium concentration is raised. In this way, the bath potassium concentration can be used to regulate the voltage-dependent conformations of the channels. Compounds are incubated with cells in the presence of low (4 mM) potassium or elevated (12, 25 or 30 mM) potassium to determine the affinity for compound block of resting (closed) channels at 4 mM potassium or affinity for block of open and inactivated channels at 12, 25 or 30 mM potassium. After the incubation period, Cav2.2 channel opening is triggered by addition of higher concentration of potassium (70 mM final concentration) to further depolarize the cell. The degree of state-dependent block can be estimated from the inhibitory potency of compounds after incubation in different potassium concentrations.
Calcium influx through Cav2.2 channels is determined using a calcium-sensitive fluorescent dye in combination with a fluorescent plate reader. Fluorescent changes were measured with either a VIPR (Aurora Instruments) or FLIPR (Molecular Devices) plate reader.
• 1. Seed cells in Poly-D-Lysine Coated 96- or 384-well plate and keep in a 37° C.-10% CO2 incubator overnight • 2. Remove media, wash cells with 0.2 mL (96-well plate) or 0.05 mL (384-well plate) Dulbecco's Phosphate Buffered Saline (D-PBS) with calcium & magnesium (Invitrogen; 14040) • 3. […] Read cell plate on VIPR instrument, Excitation=480 nm, Emission=535 nm • 9. With VIPR continuously reading, add 0.1 mL (96-well plate) or 0.03 mL (384-well plate) of Depolarization Buffer, which is 2× the final assay concentration, to the cell plate.
For `CC1(Cc2cc(F)cc(F)c2F)C(=O)NCc2ccc(-c3cccc(OCC(F)(F)F)c3)cc21` (stereo not drawn) [Example 1, 4-methyl-4-(2,3,5-trifluorobenzyl)-6-[3-(2,2,2-trifiuoroethoxy)phenyl]-1,4-dihydroisoquinolin-3(2H)-one], the IC50 came out at 230 nM. For the molecule `CC1(Cc2cc(F)cc(F)c2F)C(=O)NC(=O)c2ccc(-c3cccc(OCC(F)(F)F)c3)cc21` (stereo not drawn) [Example 2, 4-methyl-4-(2,3,5-trifluorobenzyl)-6-[3-(2,2,2-trifluoroethoxy)phenyl]isoquinoline-1,3(2H,4H)-dione], the IC50 was 260 nM.

For the molecule `Cn1cnc(N2Cc3ccc(-c4cccc(OCC(F)(F)F)c4)cc3C(C)(Cc3cc(F)cc(F)c3F)C2=O)c1` (stereo not drawn) [Example 3, 4-methyl-2-(1-methyl-1H-imidazol-4-yl)-4-(2,3,5-trifluorobenzyl)-6-[3-(2,2,2-trifiuoroethoxy)phenyl]-1,4-dihydroisoquinolin-3(2H)-one], the IC50 is 20 nM.
